target: T1, human PAD4 (Homo sapiens, UniProt Q9UM07); experiment: In vitro PAD4 BAEE biochemical assay; settings: human PAD4, BAEE substrate; 5 nM PAD4, 2 mM calcium chloride, 3 mM BAEE; geometric mean of multiple experiments
T1 construct: human PAD4 (NM_012387), A2P663, was PCR amplified; His-SUMO (N, cleaved yes); made in house; host or cells: E. coli BL21(DE3)
Outline: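 Tag-free recombinant hPAD4 (5 nM), 2 mM CaCl2, 3 mM BAEE, 50 mM MOPS pH 7.6, 2 mM DTT; 30 min compound preincubation, 2 h reaction, all 25 °C. EDTA quench; ammonia read via o-phthalaldehyde amine coupling, 1 h.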

T1 sequence (Q9UM07 2-663): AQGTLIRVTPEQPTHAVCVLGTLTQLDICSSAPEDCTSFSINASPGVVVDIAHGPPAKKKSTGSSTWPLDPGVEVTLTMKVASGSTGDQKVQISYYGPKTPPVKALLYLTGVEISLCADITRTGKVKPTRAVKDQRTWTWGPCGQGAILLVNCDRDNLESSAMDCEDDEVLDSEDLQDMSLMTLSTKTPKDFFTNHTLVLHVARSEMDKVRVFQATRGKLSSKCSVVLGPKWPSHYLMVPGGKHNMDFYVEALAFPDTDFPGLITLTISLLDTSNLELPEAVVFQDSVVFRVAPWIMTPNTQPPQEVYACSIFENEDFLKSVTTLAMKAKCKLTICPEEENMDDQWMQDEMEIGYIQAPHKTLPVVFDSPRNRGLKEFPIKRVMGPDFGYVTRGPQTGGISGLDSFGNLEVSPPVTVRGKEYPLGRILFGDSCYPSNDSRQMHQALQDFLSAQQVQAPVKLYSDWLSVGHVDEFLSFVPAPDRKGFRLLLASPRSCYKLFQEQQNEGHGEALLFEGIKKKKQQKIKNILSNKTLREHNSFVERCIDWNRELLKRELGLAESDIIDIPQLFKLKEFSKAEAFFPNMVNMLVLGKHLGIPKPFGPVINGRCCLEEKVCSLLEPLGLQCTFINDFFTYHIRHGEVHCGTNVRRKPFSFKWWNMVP

SMILES | IC50 [nM]
CC(=O)NCc1c(-c2cc3ccc(N(C(F)F)S(C)(=O)=O)nc3n2CC2CC2)nc2cc(C(=O)N3CCC[C@@H](N)C3)ccn12 [Example 437, ~{N}-[[7-[(3~{R})-3-aminopiperidine-1-carbonyl]-2-[1-(cyclopropylmethyl)-6-[difluoromethyl (methylsulfonyl)amino]pyrrolo[2,3-b]pyridin-2-yl]imidazo[1,2-a]pyridin-3-yl]methyl]acetamide] | 550
CS(=O)(=O)N(c1ccc2cc(-c3nc4cc(C(=O)N5CCC[C@@H](N)C5)ccn4c3CC3CC3)n(CC3CC3)c2n1)C(F)F [Example 438, ~{N}-[2-[7-[(3~{R})-3-aminopiperidine-1-carbonyl]-3-(cyclopropylmethyl)imidazo [1,2-a]pyridin-2-yl]-1-(cyclopropylmethyl)pyrrolo [2,3-b]pyridin-6-yl]-~{N}-(difluoromethyl) methanesulfonamide] | 194
COc1cc(C(=O)N2[C@H]3CC[C@@H]2[C@H](N)C3)cc2nc(-c3cc4ccc(N5C[C@@H](C)OCS5(=O)=O)nc4n3CC3CC3)c(C)n12 [Example 440, [(1~{R},2~{R},4~{S})-2-amino-7-azabicyclo [2.2.1]heptan-7-yl]-[2-[1-(cyclopropylmethyl)-6-[(6~{R})-6-methyl-3,3-dioxo-1,3,4-oxathiazinan-4-yl]pyrrolo [2,3-b]pyridin-2-yl]-5-methoxy-3-methylimidazo [1,2-a]pyridin-7-yl] methanone] | 207
COc1cc(C(=O)N2[C@H]3CC[C@@H]2[C@H](N)C3)cc2nc(-c3cc4ccc(N5[C@@H](C(F)(F)F)CCCS5(=O)=O)nc4n3CC3CC3)c(C)n12 [Example 447, [(1~{R},2~{R},4~{S})-2-amino-7-azabicyclo [2.2.1]heptan-7-yl]-[2-[1-(cyclopropylmethyl)-6-[(3~{R})-1,1-dioxo-3-(trifluoromethyl)thiazinan-2-yl]pyrrolo[2,3-b]pyridin-2-yl]-5-methoxy-3-methylimidazo[1,2-a]pyridin-7-yl]methanone] | 187
COc1cc(C(=O)N2[C@H]3CC[C@@H]2[C@H](N)C3)cc2nc(-c3cc4ccc(N[C@@H](C)C(F)(F)F)nc4n3CC3CC3)c(C)n12 [Example 448, [(1~{R},2~{R},4~{S})-2-amino-7-azabicyclo [2.2.1]heptan-7-yl]-[2-[1-(cyclopropylmethyl)-6-[[(2~{S})-1,1,1-trifluoropropan-2-yl]amino]pyrrolo[2,3-b]pyridin-2-yl]-5-methoxy-3-methylimidazo[1,2-a]pyridin-7-yl]methanone] | 6710
COc1cc(C(=O)N2[C@H]3CC[C@@H]2[C@H](N)C3)cc2nc(-c3cc4ccc(N[C@H](C)C(F)(F)F)nc4n3CC3CC3)c(C)n12 [Example 449] | 6670
COc1cc(C(=O)N2[C@H]3CC[C@@H]2[C@H](N)C3)cc2nc(-c3cc4ccc(N5CCNCCS5(=O)=O)nc4n3CC3CC3)c(C)n12 [Example 450, [(1~{R},2~{R},4~{S})-2-amino-7-azabicyclo [2.2.1]heptan-7-yl]-[2-[1-(cyclopropylmethyl)-6-(1,1-dioxo-1,2,5-thiadiazepan-2-yl)pyrrolo[2,3-b]pyridin-2-yl]-5-methoxy-3-methylimidazo[1,2-a]pyridin-7-yl]methanone] | 21.6
COc1cc(C(=O)N2[C@H]3CC[C@@H]2[C@H](N)C3)cc2nc(-c3cc4ccc(N5CCCC(C(C)C)S5(=O)=O)nc4n3CC3CC3)c(C)n12 (stereo partly shown) [Example 452, [(1~{R},2~{R},4~{S})-2-amino-7-azabicyclo [2.2.1]heptan-7-yl]-[2-[1-(cyclopropylmethyl)-6-(1,1-dioxo-6-propan-2-ylthiazinan-2-yl)pyrrolo [2,3-b]pyridin-2-yl]-5-methoxy-3-methylimidazo [1,2-a]pyridin-7-yl]methanone] | 246
COc1cc(C(=O)N2[C@H]3CC[C@@H]2[C@H](N)C3)cc2nc(-c3cc4ccc(N5CC(c6ccccc6)CCS5(=O)=O)nc4n3CC3CC3)c(C)n12 (stereo partly shown) [Example 453, [(1~{R},2~{R},4~{S})-2-amino-7-azabicyclo [2.2.1]heptan-7-yl]-[2-[1-(cyclopropylmethyl)-6-(1,1-dioxo-4-phenylthiazinan-2-yl)pyrrolo[2,3-b]pyridin-2-yl]-5-methoxy-3-methylimidazo[1,2-a]pyridin-7-yl]methanone] | 9320

Now from value to compound:

IC50 [nM] | SMILES
24.3 | COc1cc(C(=O)N2[C@H]3CC[C@@H]2[C@H](N)C3)cc2nc(-c3cc4ccc(N5[C@@H](C)COCS5(=O)=O)nc4n3CC3CC3)c(C)n12 [Example 439, [(1~{R},2~{R},4~{S})-2-amino-7-azabicyclo [2.2.1]heptan-7-yl]-[2-[1-(cyclopropylmethyl)-6-[(5~{S})-5-methyl-3,3-dioxo-1,3,4-oxathiazinan-4-yl]pyrrolo [2,3-b]pyridin-2-yl]-5-methoxy-3-methylimidazo [1,2-a]pyridin-7-yl] methanone]
73.1 | COc1cc(C(=O)N2[C@H]3CC[C@@H]2[C@H](N)C3)cc2nc(-c3cc4ccc(N5C[C@H](C)OCS5(=O)=O)nc4n3CC3CC3)c(C)n12 [Example 441, [(1~{R},2~{R},4~{S})-2-amino-7-azabicyclo [2.2.1]heptan-7-yl]-[2-[1-(cyclopropylmethyl)-6-[(6~{S})-6-methyl-3,3-dioxo-1,3,4-oxathiazinan-4-yl]pyrrolo[2,3-b]pyridin-2-yl]-5-methoxy-3-methylimidazo[1,2-a]pyridin-7-yl]methanone]
40.9 | COc1cc(C(=O)N2[C@H]3CC[C@@H]2[C@H](N)C3)cc2nc(-c3cc4ccc(N5CCN(Cc6cccnc6)CCS5(=O)=O)nc4n3CC3CC3)c(C)n12 [Example 442, [(1~{R},2~{R},4~{S})-2-amino-7-azabicyclo [2.2.1]heptan-7-yl]-[2-[1-(cyclopropylmethyl)-6-[1,1-dioxo-5-(pyridin-3-ylmethyl)-1,2,5-thiadiazepan-2-yl]pyrrolo [2,3-b]pyridin-2-yl]-5-methoxy-3-methylimidazo [1,2-a]pyridin-7-yl] methanone]
34.4 | COc1cc(C(=O)N2[C@H]3CC[C@@H]2[C@H](N)C3)cc2nc(-c3cc4ccc(N5CCN(C)CCS5(=O)=O)nc4n3CC3CC3)c(C)n12 [Example 443, [(1~{R},2~{R},4~{S})-2-amino-7-azabicyclo [2.2.1]heptan-7-yl]-[2-[1-(cyclopropylmethyl)-6-(5-methyl-1,1-dioxo-1,2,5-thiadiazepan-2-yl)pyrrolo[2,3-b]pyridin-2-yl]-5-methoxy-3-methylimidazo [1,2-a]pyridin-7-yl] methanone]
130 | COc1cc(C(=O)N2[C@H]3CC[C@@H]2[C@H](N)C3)cc2nc(-c3cc4ccc(N5CCN(c6ccccc6)CCS5(=O)=O)nc4n3CC3CC3)c(C)n12 [Example 444, [(1~{R},2~{R},4~{S})-2-amino-7-azabicyclo [2.2.1]heptan-7-yl]-[2-[1-(cyclopropylmethyl)-6-(1,1-dioxo-5-phenyl-1,2,5-thiadiazepan-2-yl)pyrrolo [2,3-b]pyridin-2-yl]-5-methoxy-3-methylimidazo [1,2-a]pyridin-7-yl] methanone]
80.6 | COc1cc(C(=O)N2[C@H]3CC[C@@H]2[C@H](N)C3)cc2nc(-c3cc4ccc(N5C(C)CCCCS5(=O)=O)nc4n3CC3CC3)c(C)n12 (stereo partly shown) [Example 445, [(1~{R},2~{R},4~{S})-2-amino-7-azabicyclo[2.2.1]heptan-7-yl]-[2-[1-(cyclopropylmethyl)-6-(3-methyl-1,1-dioxothiazepan-2-yl)pyrrolo [2,3-b]pyridin-2-yl]-5-methoxy-3-methylimidazo[1,2-a]pyridin-7-yl]methanone]
73.3 | CC[C@H]1CCCS(=O)(=O)N1c1ccc2cc(-c3nc4cc(C(=O)N5[C@H]6CC[C@@H]5[C@H](N)C6)cc(OC)n4c3C)n(CC3CC3)c2n1 [Example 446, [(1~{R},2~{R},4~{S})-2-amino-7-azabicyclo [2.2.1]heptan-7-yl]-[2-[1-(cyclopropylmethyl)-6-[(3~{S})-3-ethyl-1,1-dioxothiazinan-2-yl]pyrrolo[2,3-b]pyridin-2-yl]-5-methoxy-3-methylimidazo[1,2-a]pyridin-7-yl]methanone]
21.8 | COc1cc(C(=O)N2[C@H]3CC[C@@H]2[C@H](N)C3)cc2nc(-c3cc4ccc(N5CCOCCS5(=O)=O)nc4n3CC3CC3)c(C)n12 [Example 451, [(1~{R},2~{R},4~{S})-2-amino-7-azabicyclo [2.2.1]heptan-7-yl]-[2-[1-(cyclopropylmethyl)-6-(4,4-dioxo-1,4,5-oxathiazepan-5-yl)pyrrolo [2,3-b]pyridin-2-yl]-5-methoxy-3-methylimidazo[1,2-a]pyridin-7-yl]methanone]
145 | COc1cc(C(=O)N2[C@H]3CC[C@@H]2[C@H](N)C3)cc2nc(-c3cc4ccc(N5CCCC(C)S5(=O)=O)nc4n3CC3CC3)c(C)n12 (stereo partly shown) [Example 454, [(1~{R},2~{R},4~{S})-2-amino-7-azabicyclo [2.2.1]heptan-7-yl]-[2-[1-(cyclopropylmethyl)-6-(6-methyl-1,1-dioxothiazinan-2-yl)pyrrolo [2,3-b]pyridin-2-yl]-5-methoxy-3-methylimidazo[1,2-a]pyridin-7-yl]methanone]
113 | COc1cc(C(=O)N2[C@H]3CC[C@@H]2[C@H](N)C3)cc2nc(-c3cc4ccc(N5CCCN(C)S5(=O)=O)nc4n3CC3CC3)c(C)n12 [Example 455, [(1~{R},2~{R},4~{S})-2-amino-7-azabicyclo [2.2.1]heptan-7-yl]-[2-[1-(cyclopropylmethyl)-6-(6-methyl-1,1-dioxo-1,2,6-thiadiazinan-2-yl)pyrrolo[2,3-b]pyridin-2-yl]-5-methoxy-3-methylimidazo[1,2-a]pyridin-7-yl]methanone]

From patent publication US12240862B2, “Inhibitors of peptidylarginine deiminases” (Gilead Sciences, Inc., priority 2020, dated 2025)
